Key:
[1] = target: T1, Aurora kinase A (Homo sapiens) (UniProt O14965); test: Inhibition of AURKA (unknown origin) assessed as remaining activity at 1 uM by Kinome scan method relative to control
T1 sequence (whole entry): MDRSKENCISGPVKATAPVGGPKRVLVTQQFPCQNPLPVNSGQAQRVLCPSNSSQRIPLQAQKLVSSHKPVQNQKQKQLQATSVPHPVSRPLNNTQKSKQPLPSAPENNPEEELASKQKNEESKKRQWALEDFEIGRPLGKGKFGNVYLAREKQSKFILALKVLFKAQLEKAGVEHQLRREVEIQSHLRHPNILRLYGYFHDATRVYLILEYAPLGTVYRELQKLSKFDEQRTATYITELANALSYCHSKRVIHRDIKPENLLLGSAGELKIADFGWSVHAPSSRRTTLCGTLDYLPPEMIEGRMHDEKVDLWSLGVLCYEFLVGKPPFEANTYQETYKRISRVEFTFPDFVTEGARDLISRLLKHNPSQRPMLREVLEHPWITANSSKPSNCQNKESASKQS

[2] = target: Mitogen-activated protein kinase kinase kinase 10 (Homo sapiens) (UniProt Q02779); test: Inhibition of MLK2 (unknown origin) assessed as remaining activity at 1 uM by Kinome scan method relative to control
Sequence of Mitogen-activated protein kinase kinase kinase 10 (Homo sapiens) (Q02779 whole entry, looked up): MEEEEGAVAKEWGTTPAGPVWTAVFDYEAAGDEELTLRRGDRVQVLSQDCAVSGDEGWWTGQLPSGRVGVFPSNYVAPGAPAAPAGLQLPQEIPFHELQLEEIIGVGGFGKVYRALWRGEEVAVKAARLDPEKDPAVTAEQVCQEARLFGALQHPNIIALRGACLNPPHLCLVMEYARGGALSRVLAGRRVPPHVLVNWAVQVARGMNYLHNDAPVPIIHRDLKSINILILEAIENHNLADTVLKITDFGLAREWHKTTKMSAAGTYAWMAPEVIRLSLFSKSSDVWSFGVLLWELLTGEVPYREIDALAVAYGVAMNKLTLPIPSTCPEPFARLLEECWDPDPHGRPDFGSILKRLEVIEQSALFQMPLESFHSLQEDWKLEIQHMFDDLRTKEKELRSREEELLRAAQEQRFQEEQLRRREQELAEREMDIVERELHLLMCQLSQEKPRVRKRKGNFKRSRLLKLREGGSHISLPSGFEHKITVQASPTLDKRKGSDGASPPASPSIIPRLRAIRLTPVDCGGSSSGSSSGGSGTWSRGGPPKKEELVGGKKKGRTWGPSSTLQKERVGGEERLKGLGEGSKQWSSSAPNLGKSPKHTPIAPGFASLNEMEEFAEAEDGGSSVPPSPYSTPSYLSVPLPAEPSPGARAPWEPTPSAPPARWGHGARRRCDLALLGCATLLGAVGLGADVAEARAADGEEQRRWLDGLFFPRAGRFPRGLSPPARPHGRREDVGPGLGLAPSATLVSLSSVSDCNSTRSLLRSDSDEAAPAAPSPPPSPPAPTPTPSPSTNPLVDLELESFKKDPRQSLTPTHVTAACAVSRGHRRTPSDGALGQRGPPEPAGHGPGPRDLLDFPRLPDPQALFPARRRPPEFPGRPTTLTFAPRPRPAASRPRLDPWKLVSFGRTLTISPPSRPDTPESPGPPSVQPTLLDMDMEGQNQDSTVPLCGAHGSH

[3] = target: T2, Tyrosine-protein kinase TXK (Homo sapiens) (UniProt P42681); test: Inhibition of TXK (unknown origin) assessed as remaining activity at 1 uM by Kinome scan method relative to control
T2 sequence (whole entry): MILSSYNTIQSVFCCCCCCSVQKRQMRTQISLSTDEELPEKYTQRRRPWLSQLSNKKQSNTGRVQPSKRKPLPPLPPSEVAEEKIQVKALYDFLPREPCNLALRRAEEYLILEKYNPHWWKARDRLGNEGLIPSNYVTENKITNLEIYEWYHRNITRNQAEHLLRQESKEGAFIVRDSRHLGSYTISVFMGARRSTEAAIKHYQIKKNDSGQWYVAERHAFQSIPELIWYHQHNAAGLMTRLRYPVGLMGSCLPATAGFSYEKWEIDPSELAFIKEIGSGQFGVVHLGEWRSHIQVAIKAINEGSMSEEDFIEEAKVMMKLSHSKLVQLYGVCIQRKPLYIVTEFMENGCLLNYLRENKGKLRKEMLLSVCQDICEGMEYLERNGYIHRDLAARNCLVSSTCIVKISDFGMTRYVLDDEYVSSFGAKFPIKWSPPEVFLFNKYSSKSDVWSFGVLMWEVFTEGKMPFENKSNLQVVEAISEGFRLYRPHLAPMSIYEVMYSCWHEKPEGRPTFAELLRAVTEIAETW

[4] = target: T3, MAP/microtubule affinity-regulating kinase 4 (Homo sapiens) (UniProt Q96L34); test: Inhibition of MARK4 (unknown origin) assessed as remaining activity at 1 uM by Kinome scan method relative to control
T3 sequence (whole entry): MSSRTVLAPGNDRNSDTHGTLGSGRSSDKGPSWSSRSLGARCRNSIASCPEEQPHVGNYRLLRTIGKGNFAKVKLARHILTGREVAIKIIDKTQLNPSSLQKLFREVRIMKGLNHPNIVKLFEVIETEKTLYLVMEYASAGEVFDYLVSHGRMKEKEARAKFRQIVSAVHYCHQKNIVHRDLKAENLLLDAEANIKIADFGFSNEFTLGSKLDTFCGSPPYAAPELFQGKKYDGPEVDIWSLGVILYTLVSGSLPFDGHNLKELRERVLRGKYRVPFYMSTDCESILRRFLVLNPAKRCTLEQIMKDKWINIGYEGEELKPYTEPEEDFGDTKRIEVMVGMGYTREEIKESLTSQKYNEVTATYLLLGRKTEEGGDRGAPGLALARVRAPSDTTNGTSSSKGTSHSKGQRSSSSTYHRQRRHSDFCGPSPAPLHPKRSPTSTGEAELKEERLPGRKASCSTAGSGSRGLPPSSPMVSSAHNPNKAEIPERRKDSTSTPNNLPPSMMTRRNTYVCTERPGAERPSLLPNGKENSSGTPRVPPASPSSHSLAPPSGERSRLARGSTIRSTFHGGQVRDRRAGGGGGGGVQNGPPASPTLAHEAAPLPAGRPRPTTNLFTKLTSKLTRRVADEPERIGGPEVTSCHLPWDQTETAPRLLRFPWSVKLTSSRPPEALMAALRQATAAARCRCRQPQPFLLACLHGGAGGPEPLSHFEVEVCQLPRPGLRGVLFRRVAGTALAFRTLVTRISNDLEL

[5] = target: T4, Myotonin-protein kinase (Homo sapiens) (UniProt Q09013); test: Inhibition of DMPK (unknown origin) assessed as remaining activity at 1 uM by Kinome scan method relative to control
T4 sequence (whole entry): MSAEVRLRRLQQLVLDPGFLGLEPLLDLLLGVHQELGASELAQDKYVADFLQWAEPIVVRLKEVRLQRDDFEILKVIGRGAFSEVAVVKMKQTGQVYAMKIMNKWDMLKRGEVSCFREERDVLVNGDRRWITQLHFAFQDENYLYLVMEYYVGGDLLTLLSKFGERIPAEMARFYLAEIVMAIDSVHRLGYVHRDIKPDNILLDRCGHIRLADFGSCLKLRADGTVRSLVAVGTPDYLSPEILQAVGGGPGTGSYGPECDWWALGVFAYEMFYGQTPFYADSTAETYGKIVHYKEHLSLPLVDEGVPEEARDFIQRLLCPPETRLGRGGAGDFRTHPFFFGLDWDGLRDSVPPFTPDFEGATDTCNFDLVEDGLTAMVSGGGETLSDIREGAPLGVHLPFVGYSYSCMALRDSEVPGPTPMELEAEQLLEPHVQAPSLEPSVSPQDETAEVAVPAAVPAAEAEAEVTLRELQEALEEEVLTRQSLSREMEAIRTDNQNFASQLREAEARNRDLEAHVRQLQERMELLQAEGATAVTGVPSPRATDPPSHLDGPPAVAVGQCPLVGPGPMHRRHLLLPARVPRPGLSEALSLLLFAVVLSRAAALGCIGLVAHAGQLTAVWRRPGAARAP

[6] = target: Myosin light chain kinase 2, skeletal/cardiac muscle (Homo sapiens) (UniProt Q9H1R3); test: Inhibition of MYLK2 (unknown origin) assessed as remaining activity at 1 uM by Kinome scan method relative to control
Sequence of Myosin light chain kinase 2, skeletal/cardiac muscle (Homo sapiens) (Q9H1R3 whole entry): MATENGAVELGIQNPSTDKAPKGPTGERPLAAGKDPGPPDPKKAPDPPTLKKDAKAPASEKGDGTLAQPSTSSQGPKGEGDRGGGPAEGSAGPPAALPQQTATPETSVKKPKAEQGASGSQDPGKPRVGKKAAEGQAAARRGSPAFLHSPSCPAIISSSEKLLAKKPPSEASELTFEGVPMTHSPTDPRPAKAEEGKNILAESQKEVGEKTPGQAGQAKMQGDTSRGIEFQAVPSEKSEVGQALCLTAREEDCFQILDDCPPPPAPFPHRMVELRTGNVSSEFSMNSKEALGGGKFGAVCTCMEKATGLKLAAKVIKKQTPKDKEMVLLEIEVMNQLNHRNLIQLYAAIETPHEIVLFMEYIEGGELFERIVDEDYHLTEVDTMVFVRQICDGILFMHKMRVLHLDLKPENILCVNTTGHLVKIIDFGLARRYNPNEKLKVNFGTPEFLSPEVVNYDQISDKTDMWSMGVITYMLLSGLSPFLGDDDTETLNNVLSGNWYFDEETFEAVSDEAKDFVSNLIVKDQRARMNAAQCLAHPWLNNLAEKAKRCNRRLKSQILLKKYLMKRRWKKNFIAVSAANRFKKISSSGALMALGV

Compound	Activity [1] [%]	Activity [2] [%]	Activity [3] [%]	Activity [4] [%]	Activity [5] [%]	Activity [6] [%]
Nc1ccccc1Nc1ccc2c(c1)CCc1ccccc1C2=O	93	92	90	90	93	87
O=C1c2ccc(Nc3ccc(F)cc3F)cc2CCc2ccc(OC[C@H](O)CO)cc21 [Skepinone-L]	100	85	86	100	76	90
